# Results as given in PMC3262147 (Chemmedchem, 2011).
# Like-named read-outs stand apart in the source and are kept apart here.
# Key:
# [1] = tested on: STS; conditions: cited from earlier work
# [2] = target: T1, STS (Homo sapiens, UniProt P08842); assay: Inhibition of STS activity in intact monolayers of JEG-3 cells; assay type: cell-based; conditions: for inhibition at 10 µM: JEG-3, JEG-3 cells
# T1 sequence (P08842 22-583): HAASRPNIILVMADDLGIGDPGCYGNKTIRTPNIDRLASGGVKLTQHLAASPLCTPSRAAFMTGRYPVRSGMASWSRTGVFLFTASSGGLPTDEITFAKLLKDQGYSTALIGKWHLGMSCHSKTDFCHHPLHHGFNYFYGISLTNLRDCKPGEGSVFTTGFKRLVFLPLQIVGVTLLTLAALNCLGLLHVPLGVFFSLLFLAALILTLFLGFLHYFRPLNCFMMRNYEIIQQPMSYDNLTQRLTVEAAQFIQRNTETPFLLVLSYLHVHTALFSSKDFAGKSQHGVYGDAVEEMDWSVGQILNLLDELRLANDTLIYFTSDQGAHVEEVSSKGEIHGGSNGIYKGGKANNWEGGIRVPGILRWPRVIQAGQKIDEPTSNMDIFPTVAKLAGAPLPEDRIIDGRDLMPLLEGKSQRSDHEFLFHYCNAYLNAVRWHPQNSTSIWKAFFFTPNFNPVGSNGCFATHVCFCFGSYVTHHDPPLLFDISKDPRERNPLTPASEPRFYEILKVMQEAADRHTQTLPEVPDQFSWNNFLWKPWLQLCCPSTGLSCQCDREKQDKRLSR
# [3] = tested on: rat liver STS; conditions: 24 h after administration, cited from earlier work
# [4] = tested on: liver STS, skin STS; conditions: 1 and 10 mg kg^−1, cited from earlier work
# [5] = preparation of placental microsomes
# [6] = read-out: PM IC50, placental microsomes
Compound,IC50 [2] [nM],inhibition at 10 µM ([2]; determined at 10 μM) [%],"IC50 [1, 6] [nM]",also measured
"COc1cc2c(cc1OS(N)(=O)=O)CC[C@@H]1[C@@H]2CC[C@]2(C)C(=O)CC[C@@H]12 [2-methoxyestrone 3-O-sulfamate, reference compound]",,,,"IC50 [1, 5]: 30 nM"
"NS(=O)(=O)Oc1ccc2c3c(c(=O)oc2c1)CCCCC3 [Compound 1, Irosustat]",,,8,
"NS(=O)(=O)Oc1ccc2c3c(c(=O)oc2c1)CCCCCCC3 [Compound 6, 6-Oxo-6,7,8,9,10,11,12,13-octahydrocyclonona[c]chromen-3-yl sulfamate]",0.022,,2.4,
"NS(=O)(=O)Oc1ccc2c3c(c(=O)oc2c1)CCCCCCCC3 [Compound 7, 6-Oxo-7,8,9,10,11,12,13,14-octahydro-6H-cyclodeca[c]chromen-3-yl sulfamate]",0.025,,1,
"NS(=O)(=O)Oc1ccc2c3c(c(=O)oc2c1)CCCCCCCCCC3 [Compound 9, 6-Oxo-7,8,9,10,11,12,13,14,15,16-decahydro-6H-cyclododeca[c]chromen-3-yl sulfamate]",100,,60,
"NS(=O)(=O)Oc1ccc2c3c(c(=O)oc2c1)CCCCCCCCCCC3 [Compound 10, 6-Oxo-6,7,8,9,10,11,12,13,14,15,16,17-dodecahydrocyclotrideca[c]chromen-3-yl sulfamate]",220,,75,
"NS(=O)(=O)Oc1ccc2c3c(c(=O)oc2c1)CCCCCCCCCCCCC3 [Compound 11, 6-Oxo-6,7,8,9,10,11,12,13,14,15,16,17,18,19-tetradecahydrocyclopentadeca[c]chromen-3-yl sulfamate]",1600,,370,Inhibition of rat liver STS activity ([3]; 0.1 mg kg^−1): 23%; Inhibition of rat liver STS activity ([3]; 1 mg kg^−1): 94%
"CN(C)S(=O)(=O)Oc1ccc2c3c(c(=O)oc2c1)CCCCC3 [Compound 12, 6-Oxo-6,7,8,9,10,11-hexahydrocyclohepta[c]chromen-3-yl dimethylsulfamate]",> 10000,,,"JEG-3 IC50 ([2]; JEG-3 cells, Table 1): inactive; Inhibition of skin and liver STS ([4]; applied topically): inhibits skin as well as liver STS effectively; Inhibition of liver STS activity ([4]; nude mice, oral): inhibits liver STS activity potently"
"COc1cc2c3c(c(=O)oc2cc1OS(N)(=O)=O)CCCCC3 [Compound 13, 2-Methoxy-6-oxo-6,7,8,9,10,11-hexahydrocyclohepta[c]chromen-3-yl sulfamate]",78 ± 13,,,
"C[C@]12CC[C@@H]3c4ccc(OS(N)(=O)=O)cc4CC[C@H]3[C@@H]1CCC2=O [EMATE, oestrone 3-O-sulfamate, reference compound]",,,,"IC50 [1, 5]: 4 nM"

# Second part, led by results:
IC50 [2] [nM],inhibition at 10 µM ([2]; determined at 10 μM) [%],Compound,"IC50 [1, 6] [nM]",also measured
283 ± 66,,"NS(=O)(=O)Oc1ccc2oc(=O)c3c(c2c1)CCCCC3 [Compound 14, 6-oxo-6,7,8,9,10,11-hexahydrocyclohepta[c]chromen-2-yl sulfamate]",,
240 ± 40,98,"NS(=O)(=O)Oc1ccc2c3c(c(=O)[nH]c2c1)CCCCC3 [Compound 16, 6-Oxo-6,7,8,9,10,11-hexahydro-5H-cyclohepta[c]quinolin-3-yl sulfamate]",,"Fold less potent than 1 ([2]; JEG-3 IC50 versus 1): 160 fold; Inhibition ([2]; JEG-3 cells, determined at 10 μM, 10 µM): 96%"
2400,,"Cn1c(=O)c2c(c3ccc(OS(N)(=O)=O)cc31)CCCCC2 [Compound 18, 5-Methyl-6-oxo-6,7,8,9,10,11-hexahydro-5H-cyclohepta[c]quinolin-3-yl sulfamate]",,
,68,"COc1nc2cc(OS(N)(=O)=O)ccc2c2c1CCCCC2 [Compound 19, 6-Methoxy-8,9,10,11-tetrahydro-7H-cyclohepta[c]quinolin-3-yl sulfamate]",,
,< 10,"CCCCCn1c(=O)c2c(c3ccc(OS(N)(=O)=O)cc31)CCCCC2 [Compound 20, 6-Oxo-5-pentyl-6,7,8,9,10,11-hexahydro-5H-cyclohepta[c]quinolin-3-yl sulfamate]",,
,< 10,"CCCCCOc1nc2cc(OS(N)(=O)=O)ccc2c2c1CCCCC2 [Compound 21, 6-(Pentyloxy)-8,9,10,11-tetrahydro-7H-cyclohepta[c]quinolin-3-yl sulfamate]",,
,20,"NS(=O)(=O)Oc1ccc2c3c(c(=O)n(CCCc4ccccc4)c2c1)CCCCC3 [Compound 22, 6-Oxo-5-(3-phenylpropyl)-6,7,8,9,10,11-hexahydro-5H-cyclohepta[c]quinolin-3-yl sulfamate]",,
,< 10,"NS(=O)(=O)Oc1ccc2c3c(c(OCCCc4ccccc4)nc2c1)CCCCC3 [Compound 23, 6-(3-Phenylpropoxy)-8,9,10,11-tetrahydro-7H-cyclohepta[c]quinolin-3-yl sulfamate]",,
> 1000,,"NS(=O)(=O)Nc1ccc2c3c(c(=O)[nH]c2c1)CCCCC3 [Compound 24, 6-Oxo-6,7,8,9,10,11-hexahydro-5H-cyclohepta[c]quinolin-3-ylsulfamide]",,
